Earlier results in patent US8442776B2, “Structure of compstatin-C3 complex and use for rational drug design” (The Trustees of the University of Pennsylvania, priority 2007, dated 2013).

Columns and labels:
[1] = tested on: complement system (C3 activation); details: read-out: inhibitory activity IC50

CC[C@H](C)[C@H](N)C(=O)N[C@H]1CSSC[C@@H](C(=O)N[C@H](C(N)=O)[C@@H](C)O)NC(=O)[C@H](CCCN=C(N)N)NC(=O)[C@H](Cc2cnc[nH]2)NC(=O)[C@H](Cc2cnc[nH]2)NC(=O)CNC(=O)[C@H](Cc2c[nH]c3ccccc23)NC(=O)[C@H](CC(=O)O)NC(=O)[C@H](CCC(N)=O)NC(=O)[C@H](C(C)C)NC(=O)[C@H](C(C)C)NC1=O [Compstatin]
IC50 [1]: 12 µM
binding to primate C3 (primate C3): binds only to primate C3
